According to US12448388B2, “PRMT5 inhibitors and uses thereof” (Gilead Sciences, Inc., priority 2023, dated 2025):

These molecules were tested on HCT116 MTAP-deleted cell lines (assay: Cell viability assay (CellTiter-Glo, 7 days), HCT116 MTAP-deleted). Conditions: Homo sapiens, HCT-116; cell viability, HCT116 MTAP-deleted; class symbols; read-out: CC50.
Format: cell-based
In short: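 Dose-response, PRMT5 inhibitors from DMSO serial dilution, pre-spotted; cells seeded onto compound plates. 7 d, 37 °C/5% CO2/90% RH. Readout: CTG luminescence → CC50.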
With `CN(C(=O)c1cc2c(cc1F)nc(N)c1cncn12)[C@@H]1COc2cc(-c3cnn4c3COCC4)ccc21` [Ff-150, (S)-4-amino-N-(6-(6,7-dihydro-4H-pyrazolo[5,1-c][1,4]oxazin-3-yl)-2,3-dihydrobenzofuran-3-yl)-7-fluoro-N-methylimidazo[1,5-a]quinoxaline-8-carboxamide] the CC50 was < 100 nM.
`C[C@H](c1ccc(C(F)(F)F)cn1)N(C(=O)c1cc2c(cc1F)nc(N)c1cncn12)C1CC1` [Ff-153, (R)-4-amino-N-cyclopropyl-7-fluoro-N-(1-(5-(trifluoromethyl)pyridin-2-yl)ethyl)imidazo[1,5-a]quinoxaline-8-carboxamide] was tested, and the CC50 was < 100 nM.
In the case of `CN(C(=O)c1cc2c(cc1F)nc(N)c1cncn12)C1COc2c1ccc1c2OC(F)(F)O1` (stereo not drawn) [Ff-156, 4-amino-N-(2,2-difluoro-6,7-dihydro-[1,3]dioxolo[4,5-g]benzofuran-6-yl)-7-fluoro-N-methylimidazo[1,5-a]quinoxaline-8-carboxamide], the CC50 is reported as 100 to 1000 nM.
For `CN(C(=O)c1cc2c(cc1F)nc(N)c1cncn12)C1COc2c1ccc(C(F)(F)F)c2Cl` (stereo not drawn) [Ff-158, 4-amino-N-(7-chloro-6-(trifluoromethyl)-2,3-dihydrobenzofuran-3-yl)-7-fluoro-N-methylimidazo[1,5-a]quinoxaline-8-carboxamide], the CC50 was < 100 nM.
For `Nc1nc2cc(F)c(C(=O)N3CCO[C@@H]4Cc5c(ccc(Br)c5F)[C@@H]43)cc2n2cncc12` [Ff-159, (4-amino-7-fluoroimidazo[1,5-a]quinoxalin-8-yl)((4aS,9aR)-7-bromo-8-fluoro-2,3,9,9a-tetrahydroindeno[2,1-b][1,4]oxazin-4(4aH)-yl)methanone], the CC50 was < 100 nM.
With `Nc1nc2cc(F)c(C(=O)N3CCO[C@@H]4Cc5cc(Br)c(F)cc5[C@@H]43)cc2n2cncc12` [Ff-160, (4-amino-7-fluoroimidazo[1,5-a]quinoxalin-8-yl)((4aS,9aR)-7-bromo-6-fluoro-2,3,9,9a-tetrahydroindeno[2,1-b][1,4]oxazin-4(4aH)-yl)methanone] the CC50 was < 100 nM.
In the case of `Nc1nc2cc(F)c(C(=O)N3CCO[C@@H]4Cc5c(cc(F)c(Br)c5F)[C@@H]43)cc2n2cncc12` [Ff-161, (4-amino-7-fluoroimidazo[1,5-a]quinoxalin-8-yl)((4aS,9aR)-7-bromo-6,8-difluoro-2,3,9,9a-tetrahydroindeno[2,1-b][1,4]oxazin-4(4aH)-yl)methanone], the CC50 is reported as 100 to 1000 nM.
`Nc1nc2cnc(C(=O)N3CCO[C@@H]4Cc5c(cc(F)c(Br)c5F)[C@@H]43)cc2n2cncc12` [Ff-162, (4-aminoimidazo[1,5-a]pyrido[3,4-e]pyrazin-8-yl)((4aS,9aR)-7-bromo-6,8-difluoro-2,3,9,9a-tetrahydroindeno[2,1-b][1,4]oxazin-4(4aH)-yl)methanone] gave a CC50 of 100 to 1000 nM.
In the case of `CN(C(=O)c1cc2c(cc1F)nc(N)c1cncn12)[C@@H]1CCc2cc(C(F)F)ccc21` [Ff-166, (R)-4-amino-N-(5-(difluoromethyl)-2,3-dihydro-1H-inden-1-yl)-7-fluoro-N-methylimidazo[1,5-a]quinoxaline-8-carboxamide], the CC50 is reported as < 100 nM.
In the case of `Nc1nc2cc(F)c(C(=O)N3CCO[C@@H]4Cc5cc(C(F)F)c(F)cc5[C@@H]43)cc2n2cncc12` [Ff-168, (4-amino-7-fluoroimidazo[1,5-a]quinoxalin-8-yl)((4aS,9aR)-7-(difluoromethyl)-6-fluoro-2,3,9,9a-tetrahydroindeno[2,1-b][1,4]oxazin-4(4aH)-yl)methanone], the CC50 is reported as < 100 nM.
In the case of `Nc1nc2cc(F)c(C(=O)N3CCO[C@@H]4Cc5c(ccc(C(F)F)c5F)[C@@H]43)cc2n2cncc12` [Ff-169, (4-amino-7-fluoroimidazo[1,5-a]quinoxalin-8-yl)((4aS,9aR)-7-(difluoromethyl)-8-fluoro-2,3,9,9a-tetrahydroindeno[2,1-b][1,4]oxazin-4(4aH)-yl)methanone], the CC50 is reported as < 100 nM.
`C[C@@H]1CN(C(=O)c2cc3c(cc2F)nc(N)c2cncn23)[C@H]2c3ccc(C(F)F)c(F)c3C[C@H]2O1` [Ff-170, (4-amino-7-fluoroimidazo[1,5-a]quinoxalin-8-yl)((2R,4aS,9aR)-7-(difluoromethyl)-8-fluoro-2-methyl-2,3,9,9a-tetrahydroindeno[2,1-b][1,4]oxazin-4(4aH)-yl)methanone] was tested, and the CC50 was < 100 nM.
In the case of `C[C@H]1CN(C(=O)c2cc3c(cc2F)nc(N)c2cncn23)[C@H]2c3cc(F)c(OC(F)F)cc3C[C@H]2O1` [Ff-175, (4-amino-7-fluoroimidazo[1,5-a]quinoxalin-8-yl)((2S,4aS,9aR)-7-(difluoromethoxy)-6-fluoro-2-methyl-2,3,9,9a-tetrahydroindeno[2,1-b][1,4]oxazin-4(4aH)-yl)methanone], the CC50 is reported as < 100 nM.
In the case of `Nc1nc2cc(F)c(C(=O)N3CCO[C@@H]4Cc5cc(OC(F)(F)F)c(F)cc5[C@@H]43)cc2n2cncc12` [Ff-176, (4-amino-7-fluoroimidazo[1,5-a]quinoxalin-8-yl)((4aS,9aR)-6-fluoro-7-(trifluoromethoxy)-2,3,9,9a-tetrahydroindeno[2,1-b][1,4]oxazin-4(4aH)-yl)methanone], the CC50 is reported as < 100 nM.
In the case of `Nc1nc2ccc(C(=O)N3CCO[C@@H]4Cc5cc(OC(F)(F)F)c(F)cc5[C@@H]43)cc2n2cncc12` [Ff-177, (4-aminoimidazo[1,5-a]quinoxalin-8-yl)((4aS,9aR)-6-fluoro-7-(trifluoromethoxy)-2,3,9,9a-tetrahydroindeno[2,1-b][1,4]oxazin-4(4aH)-yl)methanone], the CC50 is reported as < 100 nM.
With `Nc1nc2cnc(C(=O)N3CCO[C@@H]4Cc5cc(OC(F)(F)F)c(F)cc5[C@@H]43)cc2n2cncc12` [Ff-178, (4-aminoimidazo[1,5-a]pyrido[3,4-e]pyrazin-8-yl)((4aS,9aR)-6-fluoro-7-(trifluoromethoxy)-2,3,9,9a-tetrahydroindeno[2,1-b][1,4]oxazin-4(4aH)-yl)methanone] the CC50 was < 100 nM.
With `Cc1ncc2c(N)nc3cnc(C(=O)N4CCO[C@@H]5Cc6cc(OC(F)(F)F)c(F)cc6[C@@H]54)cc3n12` [Ff-179, (4-amino-1-methylimidazo[1,5-a]pyrido[3,4-e]pyrazin-8-yl)((4aS,9aR)-6-fluoro-7-(trifluoromethoxy)-2,3,9,9a-tetrahydroindeno[2,1-b][1,4]oxazin-4(4aH)-yl)methanone] the CC50 was < 100 nM.
In the case of `Cc1ncn2c1c(N)nc1cnc(C(=O)N3CCO[C@@H]4Cc5cc(OC(F)(F)F)c(F)cc5[C@@H]43)cc12` [Ff-180, (4-amino-3-methylimidazo[1,5-a]pyrido[3,4-e]pyrazin-8-yl)((4aS,9aR)-6-fluoro-7-(trifluoromethoxy)-2,3,9,9a-tetrahydroindeno[2,1-b][1,4]oxazin-4(4aH)-yl)methanone], the CC50 is reported as < 100 nM.
In the case of `Nc1nc2cc(F)c(C(=O)N3CCO[C@@H]4Cc5cc(OC(F)(F)F)ccc5[C@@H]43)cc2n2cncc12` [Ff-181, (4-amino-7-fluoroimidazo[1,5-a]quinoxalin-8-yl)((4aS,9aR)-7-(trifluoromethoxy)-2,3,9,9a-tetrahydroindeno[2,1-b][1,4]oxazin-4(4aH)-yl)methanone], the CC50 is reported as < 100 nM.
In the case of `Nc1nc2cnc(C(=O)N3CCO[C@@H]4Cc5cc(OC(F)(F)F)ccc5[C@@H]43)cc2n2cncc12` [Ff-182, (4-aminoimidazo[1,5-a]pyrido[3,4-e]pyrazin-8-yl)((4aS,9aR)-7-(trifluoromethoxy)-2,3,9,9a-tetrahydroindeno[2,1-b][1,4]oxazin-4(4aH)-yl)methanone], the CC50 is reported as < 100 nM.
For `C[C@@H]1CN(C(=O)c2cc3c(cc2F)nc(N)c2cncn23)[C@H]2c3ccc(-c4cnn(C(F)F)c4)c(F)c3C[C@H]2O1` [Ff-199, (4-amino-7-fluoroimidazo[1,5-a]quinoxalin-8-yl)((2R,4aS,9aR)-7-(1-(difluoromethyl)-1H-pyrazol-4-yl)-8-fluoro-2-methyl-2,3,9,9a-tetrahydroindeno[2,1-b][1,4]oxazin-4(4aH)-yl)methanone], the CC50 was < 100 nM.
With `C[C@H]1CN(C(=O)c2cc3c(cc2F)nc(N)c2cncn23)[C@H]2c3ccc(-c4cnn(C(F)F)c4)c(F)c3C[C@H]2O1` [Ff-200, (4-amino-7-fluoroimidazo[1,5-a]quinoxalin-8-yl)((2S,4aS,9aR)-7-(1-(difluoromethyl)-1H-pyrazol-4-yl)-8-fluoro-2-methyl-2,3,9,9a-tetrahydroindeno[2,1-b][1,4]oxazin-4(4aH)-yl)methanone] the CC50 was < 100 nM.
In the case of `Nc1nc2ccc(C(=O)N(Cc3ccc(C(F)(F)F)cc3F)C34CC(C3)C4)cc2n2cncc12` [Ff-202, 4-amino-N-(bicyclo[1.1.1]pentan-1-yl)-N-(2-fluoro-4-(trifluoromethyl)benzyl)imidazo[1,5-a]quinoxaline-8-carboxamide], the CC50 is reported as 100 to 1000 nM.
With `CN(C(=O)c1ccc2nc(N)c3cncn3c2c1)[C@@H]1COc2cc(-c3cnn(C(F)(F)F)c3)ccc21` [Ff-203, (S)-4-amino-N-methyl-N-(6-(1-(trifluoromethyl)-1H-pyrazol-4-yl)-2,3-dihydrobenzofuran-3-yl)imidazo[1,5-a]quinoxaline-8-carboxamide] the CC50 was < 100 nM.
`Cn1cc(-c2ccc(CN(C(=O)c3cc4c(cc3F)nc(N)c3cncn34)C34CC(C3)C4)c(F)c2)cn1` [Ff-204, 4-amino-N-(bicyclo[1.1.1]pentan-1-yl)-7-fluoro-N-(2-fluoro-4-(1-methyl-1H-pyrazol-4-yl)benzyl)imidazo[1,5-a]quinoxaline-8-carboxamide] was tested, and the CC50 was < 100 nM.
For `Nc1nc2cc(F)c(C(=O)N(Cc3ccc(-c4cnn(C(F)F)c4)cc3F)C34CC(C3)C4)cc2n2cncc12` [Ff-205, 4-amino-N-(bicyclo[1.1.1]pentan-1-yl)-N-(4-(1-(difluoromethyl)-1H-pyrazol-4-yl)-2-fluorobenzyl)-7-fluoroimidazo[1,5-a]quinoxaline-8-carboxamide], the CC50 was < 100 nM.
Molecule `CN(C(=O)c1cc2c(cc1F)nc(N)c1cncn12)C1CCc2nc(Cl)ccc21` (stereo not drawn) [Ff-208, 4-amino-N-(2-chloro-6,7-dihydro-5H-cyclopenta[b]pyridin-5-yl)-7-fluoro-N-methylimidazo[1,5-a]quinoxaline-8-carboxamide] has a CC50 of 100 to 1000 nM.
